{"source": "patent US20030187038A1", "about": "“Fibrinogen-lowering agents” (priority 2000, published 2003)", "test_system": "plasma fibrinogen", "test": "Fibrinogen-lowering effect in spontaneously hypercholesterolemia (SHC) rats", "format": "in vivo, rat", "description": "Candesartan cilexetil (TCV-116; 0.5% methylcellulose 100 cp suspension; 1 mg/kg (2 ml/kg)) were administered orally to 10-week-old SHC rats once a day for a 6-week period. 0.5% methylcellulose 100 cp suspensions were administered to the control group (vehicle-treated group) in a volume of 2 ml/kg. Fibrinogen concentrations in plasma were measured as follows. At the end of experiments, the blood was withdrawn from aorta abdominalis into 3.8% trisodium citrate solution (Citral, Yamanouchi Pharmaceutical Co.,Ltd., final concentration of 0.38%) and the plasma were prepared by centrifuging at 3000 rpm at room temperature for 20 minutes. The fibrinogen concentration was determined using fibrinogen test RD (Roche Diagnostics) and the clot timer (B-10, Sarstedt, Inc.) with reference to a standard rat fibrinogen (F-6755, Sigma).", "data": [{"smiles": "CCOc1nc2cccc(C(=O)OC(C)OC(=O)OC3CCCCC3)c2n1Cc1ccc(-c2ccccc2-c2nnn[nH]2)cc1", "note": "(centres unmarked) [TCV-116, 1-(cyclohexyloxycarbonyloxy)ethyl 2-ethoxy-1-[[2′-(1H-tetrazol-5-yl)biphenyl-4-yl]methyl]-benzimidazole-7-carboxylate]", "values": [{"measurement": "Fibrinogen level", "setting": "SHC rat plasma, 1 mg/kg/day orally once a day for 6 weeks, Mean ± SE, n = 5, p < 0.01 vs vehicle", "result": "354.0 ± 29.1", "unit": "mg/dL"}, {"measurement": "Effect on plasma fibrinogen level versus control group", "setting": "SHC rat, 1 mg/kg, comparison with vehicle-treated group", "result": "decreased the plasma fibrinogen level of SHC rat significantly"}]}]}
